For assay [1], the system named is myelopoiesis progenitor cells in the blood. Put plainly: Colony-forming unit (CFU) assay, progenitor cells in blood of osteoporosis animal models. It counts as in vivo, mouse. Particulars: OVX mice, 50 μg/kg i.p. twice a day for 4 weeks, blood 1 hour after last dose. The procedure:
To make an osteoporosis model, 10-18 12 weeks old female mice per group underwent ovarian ablation. A week later, 50 μg/kg of NPY(21-28), NPY D^25(21-28), NPY D^26(21-28), NPY D^25,26(21-28), Osteopep2, NPY and 100 μl of PBS(Gibco) were intraperitoneally administered twice a day for 4 weeks at 12 hour intervals. Alendronate (Sigma), used as a competitive drug, was intraperitoneally administered once a week for 4 weeks at a dose of 50 μg/kg. As a control group, only Sham model of osteoporosis was performed by subcutaneous dissection of female mouse. Mice were placed in experimental groups using the Block randomization method, and all mouse experiments were approved through the Kyungpook National University Institutional Animal Care and Use Committee. CFU analysis was performed to determine the number of bone marrow hematopoietic progenitor cells in the blood of mice. After anesthetizing the mouse first, 500 μl to 700 μl of blood were collected in a heparin tube by cardiac drawing, and then placed in ammonium chloride solution (Stem Cell Technologies, Inc. 1:10) and placed on ice for 15 minutes to remove red blood cells. The red blood cells were well shaken at intervals of 2 to 3 minutes and centrifuged at 1000 rpm for 7 minutes. The supernatant was removed and washed with IMDM (Gibco) supplied with 2% fetal bovine serum (FBS, Gibco). The washed cells (3×10^5 per mouse) were divided into three 35 mm dishes containing methylcellulose-based media (Methocult, Stem cell), and after the cells were incubated for two weeks, the number of colonies formed in the flask was counted. In order to investigate whether the NPY (21-28) of the present invention affects the blood release of myelopoiesis stem cells in the animal models of osteoporosis, the following experiments were carried out according to the methods of Examples 1-1, 1-3, 1-4, and 1-5. In order to make animal models of osteoporosis, 12 weeks old C57BL/6 female mice were subjected to ovarian ablation for 10 to 18 animals in each group. One week later, 50 μg/kg of NPY (21-28) and 100 μl of PBS (Gibco) were intraperitoneally administered twice a day for 4 weeks at 12 hour intervals. As a control group, mice that underwent only subcutaneous incisions in normal mice were used. Weight change was measured weekly, and bone marrow and blood were collected one hour after the last dose at 4 weeks, and the release of myelopoiesis progenitor and stem cells into blood was analyzed. The positive control group, NPY (21-36), Osteopep2 and full length NPY (50 μg/kg, intraperitoneally administered twice a day for 4 weeks) were used. Alendronate used as a competitive drug for osteoporosis treatment was intraperitoneally administered at a dose of 50 μg/kg for 4 weeks once a week. […]

In assay [2] the test system is osteoclasts in bone marrow. Put plainly: TRAP staining of osteoclasts in bone marrow of osteoporosis animal models. It counts as in vivo, mouse. Particulars: OVX mice, 50 μg/kg i.p. twice a day for 4 weeks; compared to PBS. The protocol:
To make an osteoporosis model, 10-18 12 weeks old female mice per group underwent ovarian ablation. A week later, 50 μg/kg of NPY(21-28), NPY D^25(21-28), NPY D^26(21-28), NPY D^25,26(21-28), Osteopep2, NPY and 100 μl of PBS(Gibco) were intraperitoneally administered twice a day for 4 weeks at 12 hour intervals. Alendronate (Sigma), used as a competitive drug, was intraperitoneally administered once a week for 4 weeks at a dose of 50 μg/kg. As a control group, only Sham model of osteoporosis was performed by subcutaneous dissection of female mouse. Mice were placed in experimental groups using the Block randomization method, and all mouse experiments were approved through the Kyungpook National University Institutional Animal Care and Use Committee.
The femurs were separated from the mice and fixed in 4% paraformaldehyde for 24 hours, and tissue was decalcified in 10% EDTA for 5 weeks. It was then dehydrated with a series of diluted alcohols, paraffinized, and prepared into […] paraffin sections.
For TRAP staining, sections were deparaffinized, stained with 1.33 mM Fast Red Violet LB Salt (Sigma-Aldrich) in 50 mM sodium acetate (pH 5.0) containing 225 μM Naphthol AS-MX phosphate (Sigma-Aldrich, St Louis, Mo., USA), 0.84% N, N-dimethylformamide (Sigma-Aldrich) and 50 mM sodium tartrate, and incubated for 30 minutes. After incubation, the sections were washed with distilled water and counterstained with 1% methyl green.
Histomorphometric analysis was performed using the OsteoMeasure program (Extensive interactive Bone Histomorphometry Analysis System).
After the last administration at 4 weeks of NPY (21-28), the femurs were separated from the mice and the number of osteoclasts in the bone marrow was measured by TRAP staining.
After the last administration at 4 weeks of NPY D^25(21-28), NPY D^26(21-28), and NPY D^25,26(21-28), the femurs were separated from the mice and the number of osteoclasts in the bone marrow was measured by TRAP staining.

Entries after “also recorded” stand apart in the source; their conditions may differ. Non-standard residues stand in square brackets, D forms with d. No end group written: not given here.

Regarding “NPY D^25(21-28): peptide in which arginine, the fifth amino acid of the amino acid sequence of NPY (21-28), is modified to D-type (YSAL[dR]HYI)”, in assay [1], the “releasing myelopoiesis progenitor cells into blood (CFU assay)” value was “increases”. In addition, in assay [2], the “number of TRAP positive osteoclasts in bone marrow (Number of osteoclast/Bone surface)” value (“number … (Number of osteoclast/Bone surface)” for short) is “reduced” and the “osteoclast surface (Osteoclast surface/Bone surface)” value is given as “reduced”.
Regarding “NPY D^25,26(21-28): peptide in which both the fifth and sixth amino acids of NPY (21-28) are modified to D-form (YSAL[dR][dH]YI)”, the “releasing myelopoiesis progenitor cells into blood (CFU assay)” value in assay [1] is listed as “increases”. Moreover, the “releasing myelopoiesis progenitor cells into blood (CFU assay)” value in assay [1] (listed as NPY D^25,26 (21-28)) is reported as “highest efficiency; also recorded: even better than that of NPY (21-28)”. In addition, in assay [2], the “number … (Number of osteoclast/Bone surface)” value was “reduced; also recorded: highest efficiency” and the “osteoclast surface (Osteoclast surface/Bone surface)” value was “reduced”.
Consider YSALRHYI [NPY (21-28)], for which the “releasing myelopoiesis progenitor cells into blood (CFU assay)” value in assay [1] was “increases; also recorded: superior to Osteopep2 and NPY”. For the same substance, in assay [2], the “number … (Number of osteoclast/Bone surface)” value is “superior to Osteopep2 and NPY; also recorded: superior to the competitive drug Alendronate”; the “osteoclast surface (Osteoclast surface/Bone surface)” value is “superior to Osteopep2 and NPY; also recorded: superior to the competitive drug Alendronate”.

Values taken from patent US11279744B2, “Neuropeptide Y fragment capable of releasing hematopoietic stem cells into blood and treating osteoporosis” (Kyungpook National University Industry-Academic Cooperation …, priority 2017, dated 2022).
